Measurements: patent US20240024317A1, “CANCER TREATMENT USING BOSENTAN IN COMBINATION WITH A CHECKPOINT INHIBITOR” (Materia Therapeutics Inc., priority 2020, published 2024)

Tests used:
Type in all cases: in vivo, mice
MCA205 tumors [1] = experiment: Tumor growth in fibrosarcoma model, ketotifen, doxorubicin, anti-PD-L1; conditions: for tumor growth: monotherapy
Protocol: (§1) A fibrosarcoma syngeneic tumor model was generated by subcutaneous implantation of 2.5×10^5 MCA205 cells in 50 μL of serum-free medium into the flank of 6-week old C57BL/6 female mice. A osteosarcoma syngeneic tumor model was generated by implanting K7M2 wt tumor chunks into the fat pad of 6-week old BALB/c female mice.
(§2) Mice bearing sarcoma tumors were pre-treated with 10 mg/kg daily ketotifen followed by three or four doses of doxorubicin and/or an immune checkpoint inhibitor anti-PD-L1 antibody. Mouse monoclonal anti-PD-L1 (B7-H1, clone 10F.9G2, BioXCell) was used. Doxorubicin hydrochloride was prepared as a ready-made solution of 2 mg/ml. Anti-PD-L1 antibody was administered at a final dose of 10 mg/kg and doxorubicin at 5 mg/kg.
Mice bearing MCA205 tumors were pretreated with daily ketotifen 10 mg/kg or equal volume of diluent (control group) once the average tumor size reached 40 mm^3, prior to the neoadjuvant treatment. Doxorubicin and anti-PD-L1 combination treatment initiated when tumors reached an average size of 150 mm^3 (day 7) and was administered as i.p. injections every three days (day 7, 10, and 13) for three doses. Daily ketotifen continued until completion of doxorubicin-anti-PD-L1 combination treatment.
(§3) Primary tumors were resected and stored when they reached an average size of 700 mm^3 on day 16 and mice were monitored for re-challenge experiments. Similarly, K7M2 wt tumors were pretreated with daily ketotifen 10 mg/kg or equal volume of diluent (control group) once the average tumor size reached 80 mm^3 (day 18) and continued until completion of neoadjuvant treatment. Doxorubicin and anti-PD-L1 combination treatment started when tumors reached an average size of 150 mm^3 (day 22) and repeated on day 25, 28 and 31. Study ended when tumors reached a mean volume of 550 mm 3 (day 33). Mice were sacrificed and tumors were collected for ex vivo analysis.

MCA205 tumors [2] = experiment: Contrast-enhanced ultrasound of vascular and functional perfusion, ketotifen; conditions: during ketotifen treatment
Protocol: (§4) Vascular perfusion and functional perfusion were measured simultaneously during the course of ketotifen treatment, using contrast-enhanced ultrasound in mice bearing MCA205 and mice bearing K7M2 wt tumors.

K7M2 wt tumors [3] = experiment: as above; conditions: during ketotifen treatment
Protocol: as §4

[4] = test system: MCA205 fibrosarcoma tumors; experiment: Shear wave elastography of tumor elastic modulus, ketotifen
Source text: The mechanotherapeutic potential of ketotifen in reducing matrix stiffness was primarily assessed non-invasively and longitudinally using ultrasound elastography. Assessment of tumor elastic modulus was […] via shear wave elastography using a Philips EPIQ Elite Ultrasound scanner with an eL 18-4 linear array.

K7M2 wt tumors [5] = experiment: Tumor growth in osteosarcoma model, ketotifen, doxorubicin, anti-PD-L1; conditions: for tumor growth: monotherapy
Protocol: as §1, §2, §3

MCA205 tumors [6] = experiment: Interstitial fluid pressure (IFP), wick-in-needle technique, ketotifen
Protocol: Interstitial fluid pressure (IFP) was measured in vivo using the “wick-in-needle” technique after mice were anesthetized with i.p. injection of Avertin and prior to tumor excision. Additional information regarding the wick-in-needle technique is described in Dong et al., Involvement of mast cell chymase in burn wound healing in hamsters 2013; 5:643-7 and Shankaran et al. IFNγ and lymphocytes prevent primary tumour development and shape tumour immunogenicity 2001; 410:1107-11, the contents of which are incorporated herein by reference in their entirety.

[7] = anti-PD-L1 (10 mg/kg) and/or doxorubicin (5 mg/kg) combined with 10 mg/kg daily ketotifen

| SMILES | antitumor response (MCA205 tumors [1]; [7]) | tumor growth (MCA205 tumors [1]) | functional perfusion (MCA205 tumors [2]) | vascular perfusion (MCA205 tumors [2]) | functional perfusion (K7M2 wt tumors [3]) | vascular perfusion (K7M2 wt tumors [3]) | Young's modulus ([4]; 10 mg/kg ketotifen) [kPa] | tissue stiffness (ultrasound elastography) ([4]; 10 mg/kg ketotifen compared with other doses) | antitumor response (K7M2 wt tumors [5]; [7]) | tumor growth (K7M2 wt tumors [5]) | IFP (MCA205 tumors [6]; 10 mg/kg dose of ketotifen compared with other doses) | IFP (MCA205 tumors [6]; all doses of ketotifen, daily for 7 days) |
| --- | --- | --- | --- | --- | --- | --- | --- | --- | --- | --- | --- | --- |
| CN1CCC(=C2c3ccccc3CC(=O)c3sccc32)CC1 [ketotifen] | induced a significant antitumor response | no antitumor effect | significant increase | significant increase | significant increase | significant increase | 20 | reduced tissue stiffness the most | induced a significant antitumor response | no antitumor effect | greatest effect | reduced the IFP |
| COc1cccc2c1C(=O)c1c(O)c3c(c(O)c1C2=O)C[C@@](O)(C(=O)CO)C[C@@H]3O[C@H]1C[C@H](N)[C@H](O)[C@H](C)O1 [doxorubicin] | – | Neither anti-PD-L1 nor doxorubicin monotherapies significantly affected tumor growth | – | – | – | – | – | – | – | Neither anti-PD-L1 nor doxorubicin monotherapies significantly affected tumor growth | – | – |
